Measured values from paper PMC10383271.

System: normal human dermal fibroblasts (NHDF)
Experiment: MTT assay, viability of NHDF cell culture (ISO 10993 part 5)
Assay type: cell-based
Settings: NHDF cell cultures, 24 h incubation; for IC50: Homo sapiens, MTT, mean (± SD), n = 5
Procedure: The viability of the normal human dermal fibroblasts (NHDF) cell culture after 24 h incubation with the tested compounds 5a-c-7a-c was assessed by carrying out the MTT assay. This test was performed according to ISO 10993 part 5, Appendix C. For all tested compounds, the IC50 values were calculated using four-parameter logistics. Normal human dermal fibroblasts (NHDF) were purchased from the American Type Culture Collection (ATCC) for cytotoxicity evaluation of the tested compounds. The cells were grown in Dulbecco's Modified Eagle Medium DMEM with […] glucose without phenol red supplemented with 10% FBS and 2 mM L-glutamine, and 25 μg/mL gentamicin. The NHDF cells were cultured under standard conditions (5% CO2, 37 °C, and 95% humidity) with evaluation morphology and confluence at least twice a week. For the assay, the cells were used only in a logarithmic growth phase, and the TrypLE solution was used for 2 min at 37 °C to detach cells. Then, the TrypLE solution was inactivated by adding a culture medium, and the suspension of cells was collected into a tube and centrifuged for 5 min at 1000 rpm. Then, the supernatant was removed, fresh medium was added, and the pellet was resuspended and calculated using the […] chamber. The suspension of cells was prepared to allow seeding 10,000 cells/well density and incubated for 24 h to regenerate in CO2-incubator. The tested compounds were dissolved in DMSO to a final concentration of 10 mM and stored at -20 °C. Before use, the compound solution was kept at room temperature until thawing, and then, samples with 3 different concentrations of compounds were prepared (100 μM, 50 μM, and 10 μM) for each compound. The tested concentrations of compounds were prepared in a culture medium. […] The evaluation of the cytotoxicity of the newly synthesized compounds was carried out in accordance with the ISO 10,993 part V standard by performing the MTT test. After seeding at a density of 10,000 cells per well and adhering overnight, the NHDF cells were treated with the test compounds for 24 h in a CO2 incubator. The supernatant was then removed, the cells were washed with PBS, a 1mg/mL solution of MTT dissolved in MEM was added, and the cultures were re-incubated for 2 h in a CO2 incubator. The medium was then removed, and for a further 30 min, the formazan crystals were dissolved in 100 μL of isopropanol. The absorbance was measured with a Varioskan Go microplate reader at a wavelength of 570 nm. […] For enzyme assays, the IC50 was calculated according to the procedure provided by the kit manufacturer. The significance was set at p < 0.05. Based on the tests performed, the test power was calculated to be greater than 80%.

Row | Structure (SMILES) | IC50 | Cell Morphology in Culture
1 | CCCCn1c(C)c2c(OCC(=O)N/N=C/c3ccccc3)nn(C)c(=O)c2c1C [Compound 5a, N-[(Z/E)-benzylideneamino]-2-(6-butyl-3,5,7-trimethyl-4-oxo-pyrrolo[3,4-d]pyridazin-1-yl)oxy-acetamide] | 85.6 ± 2.5 µM | Cells with an elongated shape characteristic of fibroblasts, the granularities were observed in 3–5 fields of view from 10 analyzed fields.
2 | Cc1c2c(OCC(=O)N/N=C/c3ccccc3)nn(C)c(=O)c2c(C)n1-c1ccccc1 [Compound 5b, N-[(Z/E)-benzylideneamino]-2-(3,5,7-trimethyl-4-oxo-6-phenyl-pyrrolo[3,4-d]pyridazin-1-yl)oxy-acetamide] | 486 ± 6.5 µM | Normal morphology of fibroblasts-elongated cells, single granular cells in 1 of 10 assessed fields of view.
3 | Cc1c2c(OCC(=O)N/N=C/c3ccccc3)nn(C)c(=O)c2c(C)n1-c1cccc(Cl)c1 [Compound 5c, N-[(Z/E)-benzylideneamino]-2-[6-(3-chlorophenyl)-3,5,7-trimethyl-4-oxo-pyrrolo[3,4-d]pyridazin-1-yl]oxyacetamide] | 95.2 ± 1.5 µM | Cells with an elongated shape characteristic of fibroblasts, the granularities were observed in 3–5 fields of view from 10 analyzed fields.
